LD90 and LD100 data for 11 compounds are collected here from article PMC6399351, “Cationic Intrinsically Disordered Antimicrobial Peptides (CIDAMPs) Represent a New Paradigm of Innate Defense with a Potential for Novel Anti-Infectives” (Scientific Reports, 2019).

For experiment [1], the system named is P. aeruginosa ATCC 10145. Particulars: CFU assay, 10 mM NaP, pH 5.5, 0.25% glucose.
Experiment [2] has as its system S. aureus ATCC 6538. The following applies: CFU assay, 10 mM NaP.

Values joined by “and” are separate entries in the source; they are usually repeats but may differ in a detail not shown here. Equal entries are not always repeated. Where two headings read alike, the source gives them in different places. Square brackets hold non-standard residues; d marks the D form. Ends that are not written are not given here. Peptide text beside a SMILES is read from it. * marks the point of attachment. Palmitoyl = CCCCCCCCCCCCCCCC(=O)*; Myristoyl = CCCCCCCCCCCCCC(=O)*

As to `CCCCCCCCCCCCCCCC(=O)NCC(=O)N[C@H](CCCNC(=N)N)C(=O)N[C@H](CCCNC(=N)N)C(=O)NCC(=O)NCC(=O)N[C@H](CCCNC(=N)N)C(=O)NCC(=O)NCC(=O)N[C@H](CCCNC(=N)N)C(=O)O` [(D)-Pal-GR9] (Palmitoyl-G[dR][dR]GG[dR]GG[dR]-OH; C-terminus assumed), in experiment [1], the LD90 is 0.038 µg/mL and the LD100 turned out to be 0.59 µg/mL. In experiment [2] (pH 5.5, 0.25% glucose), this compound had an LD90 of 0.15 µg/mL and an LD100 of 2.35 µg/mL.

In experiment [2] (pH 7.3, 1% TSB), `CCCCCCCCCCCCCC(=O)NCC(=O)N[C@@H](CCCNC(=N)N)C(=O)N[C@@H](CCCNC(=N)N)C(=O)NCC(=O)N[C@@H](CO)C(=O)NCC(=O)N[C@@H](CC(C)C)C(=O)NCC(=O)N[C@@H](CCCNC(=N)N)C(=O)N[C@@H](CO)C(=O)N[C@@H](CO)C(=O)N[C@@H](CO)C(=O)N[C@@H](CCCNC(=N)N)C(=O)NCC(=O)N[C@@H](CCC(N)=O)C(=O)N[C@@H](CCCNC(=N)N)C(=O)NCC(=O)N[C@@H](CO)C(=O)NCC(=O)N[C@@H](CO)C(=O)NCC(=O)N[C@@H](CCCNC(=N)N)C(=O)O` [Myr-HR 1-18-HR] (Myristoyl-GRRGSGLGRSSSRGQRGSGSGR-OH; C-terminus assumed) gave an LD90 of 18.75 µg/mL and an LD100 of 75 µg/mL.

Regarding `CCCCCCCCCCCCCCCC(=O)SC[C@H](NC(=O)[C@H](CO)NC(=O)[C@H](CO)NC(=O)[C@H](CO)NC(=O)[C@H](CCC(N)=O)NC(=O)CNC(=O)[C@H](CO)NC(=O)[C@@H](NC(=O)[C@H](CO)NC(=O)CNC(=O)[C@H](Cc1c[nH]cn1)NC(=O)[C@H](CCC(N)=O)NC(=O)CNC(=O)[C@H](Cc1c[nH]cn1)NC(=O)[C@@H](NC(=O)[C@H](CO)NC(=O)[C@H](CO)NC(=O)[C@H](Cc1c[nH]cn1)NC(=O)CNC(=O)[C@H](CO)NC(=O)[C@H](CO)NC(=O)[C@H](CO)NC(=O)CNC(=O)[C@H](Cc1c[nH]cn1)NC(=O)[C@H](CCC(N)=O)NC(=O)CN)[C@@H](C)O)[C@@H](C)O)C(N)=O` [S-Pal-HRNR598–623] (H-GQHGSSSGHSSTHGQHGSTSGQSSSC(Palmitoyl)-NH2; N-terminus assumed), in experiment [2] (pH 5.5, 0.25% glucose), the LD90 came out at 2.35 µg/mL and the LD100 is more than 150 µg/mL.

In experiment [2] (pH 5.5, 0.25% glucose), `CCCCCCCCCCCCCCCC(=O)SC[C@H](N)C(=O)NCC(=O)N[C@@H](CCC(N)=O)C(=O)N[C@@H](Cc1c[nH]cn1)C(=O)NCC(=O)N[C@@H](C)C(=O)N[C@H](C(=O)N[C@@H](CO)C(=O)NCC(=O)N[C@@H](CCC(N)=O)C(=O)N[C@@H](CO)C(=O)N[C@@H](CO)C(=O)N[C@@H](CO)C(=O)N[C@@H](Cc1c[nH]cn1)C(=O)NCC(=O)N[C@@H](CCC(N)=O)C(=O)N[C@@H](Cc1c[nH]cn1)C(=O)NCC(=O)N[C@@H](CO)C(=O)NCC(=O)N[C@@H](CO)C(=O)N[C@@H](CO)C(=O)N[C@@H](CCC(N)=O)C(=O)N[C@@H](CO)C(=O)N[C@@H](CO)C(=O)N[C@@H](CCCNC(=N)N)C(=O)O)[C@@H](C)O` [S-Pal-HRNR623–648] (H-C(Palmitoyl)GQHGATSGQSSSHGQHGSGSSQSSR-OH; N-terminus and C-terminus assumed) came in with an LD90 of 2.35 µg/mL and an LD100 of more than 150 µg/mL.

With `CCCCCCCCCCCCCCCC(=O)SC[C@H](N)C(=O)NCC(=O)N[C@@H](CCC(N)=O)C(=O)N[C@@H](Cc1c[nH]cn1)C(=O)NCC(=O)N[C@@H](C)C(=O)N[C@H](C(=O)N[C@@H](CO)C(=O)N[C@@H](CO)C(=O)NCC(=O)N[C@@H](CCC(N)=O)C(=O)N[C@@H](CO)C(=O)N[C@@H](CO)C(=O)N[C@@H](CO)C(=O)N[C@@H](Cc1c[nH]cn1)C(=O)NCC(=O)N[C@@H](CCC(N)=O)C(=O)N[C@@H](Cc1c[nH]cn1)C(=O)NCC(=O)N[C@@H](CO)C(=O)NCC(=O)N[C@@H](CO)C(=O)N[C@@H](CO)C(=O)N[C@@H](CCC(N)=O)C(=O)N[C@@H](CO)C(=O)N[C@@H](CO)C(=O)NCC(=O)N[C@@H](Cc1ccc(O)cc1)C(=O)NCC(=O)N[C@@H](CCCNC(=N)N)C(=O)O)[C@@H](C)O` [S-Pal-HRNR1089–1117] (H-C(Palmitoyl)GQHGATSSGQSSSHGQHGSGSSQSSGYGR-OH; N-terminus and C-terminus assumed), the LD100 in experiment [2] (pH 5.5, 0.25% glucose) is more than 150 µg/mL.

In experiment [2] (pH 5.5, 0.25% glucose), `CCCCCCCCCCCCCCCC(=O)SC[C@H](NC(=O)CNC(=O)[C@H](CO)NC(=O)[C@H](CO)NC(=O)[C@H](CCC(N)=O)NC(=O)[C@H](Cc1c[nH]c2ccccc12)NC(=O)[C@H](CO)NC(=O)[C@H](CO)NC(=O)[C@H](CO)NC(=O)[C@H](CCC(=O)O)NC(=O)[C@H](Cc1c[nH]cn1)NC(=O)[C@H](Cc1c[nH]cn1)NC(=O)CNC(=O)[C@H](Cc1ccccc1)NC(=O)CNC(=O)[C@H](CO)NC(=O)[C@H](CO)NC(=O)[C@H](CCC(N)=O)NC(=O)CNC(=O)[C@H](CO)NC(=O)CNC(=O)[C@H](CO)NC(=O)CNC(=O)[C@H](Cc1c[nH]cn1)NC(=O)[C@H](CCCNC(=N)N)NC(=O)CN)C(N)=O` [S-Pal-HRNR1389–1414] (H-GRHGSGSGQSSGFGHHESSSWQSSGC(Palmitoyl)-NH2; N-terminus assumed) came in with an LD90 of 1.18 µg/mL and an LD100 of 18.8 µg/mL.

As for `CCCCCCCCCCCCCCCC(=O)SC[C@H](NC(=O)[C@H](Cc1ccccc1)NC(=O)[C@H](Cc1c[nH]cn1)NC(=O)CNC(=O)[C@H](CO)NC(=O)CNC(=O)[C@H](CO)NC(=O)CNC(=O)[C@H](Cc1c[nH]cn1)NC(=O)[C@H](CCC(N)=O)NC(=O)[C@H](CO)NC(=O)[C@H](Cc1ccc(O)cc1)NC(=O)[C@H](C)NC(=O)[C@H](CO)NC(=O)[C@H](CO)NC(=O)[C@H](Cc1c[nH]cn1)NC(=O)CNC(=O)[C@H](CO)NC(=O)CNC(=O)[C@H](CO)NC(=O)[C@H](CCC(=O)O)NC(=O)[C@H](Cc1c[nH]cn1)NC(=O)[C@H](CCC(N)=O)NC(=O)CNC(=O)[C@H](Cc1ccccc1)NC(=O)[C@@H](NC(=O)[C@H](CO)NC(=O)[C@H](CO)NC(=O)[C@H](Cc1c[nH]cn1)NC(=O)CNC(=O)[C@@H](N)CO)C(C)C)C(N)=O` [S-Pal-HRNR1748–1778] (H-SGHSSVFGQHESGSGHSSAYSQHGSGSGHFC(Palmitoyl)-NH2; N-terminus assumed), in experiment [2] (pH 5.5, 0.25% glucose), the LD90 is 0.3 µg/mL and the LD100 is 9.38 µg/mL.

`CCCCCCCCCCCCCCCC(=O)SC[C@H](NC(=O)[C@H](CO)NC(=O)[C@H](CO)NC(=O)[C@H](CO)NC(=O)[C@H](CCC(N)=O)NC(=O)CNC(=O)[C@H](CO)NC(=O)[C@H](C)NC(=O)[C@H](CO)NC(=O)CNC(=O)[C@H](Cc1c[nH]cn1)NC(=O)[C@H](CCC(N)=O)NC(=O)CNC(=O)[C@H](Cc1c[nH]cn1)NC(=O)[C@@H](NC(=O)[C@H](CO)NC(=O)[C@H](CO)NC(=O)[C@H](Cc1c[nH]cn1)NC(=O)CNC(=O)[C@H](CO)NC(=O)[C@H](CO)NC(=O)[C@H](CO)NC(=O)CNC(=O)[C@H](Cc1c[nH]cn1)NC(=O)[C@H](CCC(N)=O)NC(=O)CN)[C@@H](C)O)C(N)=O` [S-Pal-HRNR2004–2029] (H-GQHGSSSGHSSTHGQHGSASGQSSSC(Palmitoyl)-NH2; N-terminus assumed): in experiment [2] (pH 5.5, 0.25% glucose), the LD90 was found to be 0.59 µg/mL; the LD100 was > 150 µg/mL and 75 µg/mL.

In experiment [2] (pH 5.5, 0.25% glucose), GRRGGGGGRGGGRGGRGGGGGR [HR 1-18,G+R] came in with an LD90 of more than 300 µg/mL and an LD100 of more than 300 µg/mL.

“Pal-SHHRHFRSHQCRRQRS NSCDR [Pal-LCE-3C55-75]”: in experiment [2] (pH 5.5, 0.25% glucose), the LD90 is 0.15 µg/mL and the LD100 turned out to be 0.59 µg/mL.

As to SHHRPRLFHRRRH [LCE-2B74-86], in experiment [2] (pH 5.5, 0.25% glucose), the LD90 was determined as 1.18 µg/mL and the LD100 was more than 150 µg/mL.
